Test results published in US8076368B2, “Percutaneous absorption type cerebral protective agent” (Lead Chemical Co., Ltd,, priority 2003, dated 2011).

Test system: rat-transient focal cerebral ischemia model
Test: Rat-transient focal cerebral ischemia model (middle cerebral artery closure 2 h, TTC staining)
Type: in vivo
Details: injectable solution, intravenously two times (immediately after and 30 minutes after restoration of blood flow), 3 mg/kg

Structure (SMILES): CC1=NN(c2ccccc2)C(=O)C1 [3-methyl-1-phenyl-2-pyrazolin-5-one]
- effect on area of cerebral infarction compared with the control group (in words): almost same as that of the control group
